Here are results for 21 compounds from patent US12208088B2 (Genentech, Inc., priority 2018, dated 2025).

HPK1, sequence (Q92918 1-346 limits assumed): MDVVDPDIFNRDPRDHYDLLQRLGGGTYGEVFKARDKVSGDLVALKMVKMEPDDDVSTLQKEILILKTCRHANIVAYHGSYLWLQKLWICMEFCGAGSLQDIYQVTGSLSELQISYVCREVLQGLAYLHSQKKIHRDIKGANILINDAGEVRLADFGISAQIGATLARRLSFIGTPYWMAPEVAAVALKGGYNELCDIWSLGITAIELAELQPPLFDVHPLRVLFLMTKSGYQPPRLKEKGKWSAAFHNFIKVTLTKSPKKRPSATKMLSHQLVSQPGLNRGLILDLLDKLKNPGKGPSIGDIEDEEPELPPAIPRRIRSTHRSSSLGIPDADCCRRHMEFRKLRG

The assay deals with HPK1 (Homo sapiens (Human), UniProt Q92918). Briefly: HPK1 Lantha binding assay ("Lanth"). The settings on record: binding assays; Morrison Ki fit. How it is done:
Example B2: HPK1 Lantha Binding Assay (“Lanth”)
Procedure: I. Compound Dilution:
The compounds to be tested were diluted by preparing 12.5 uL/well of 5 mM compound (100×) in columns 2 and 13 and 10 ul/well of DMSO in columns 3-12, 14-23, and wells A1-H1 and I24-P24 of the compound plate using a Bravo liquid handling platform. For the reference compound, the top concentration was 1 mM. To the plate was added 10 ul 2 mM staurosporine in wells J1-P1 and A24-H24. A 11 point 5-fold compound serial dilution was performed using the Bravo liquid handling platform. From the plate were transferred 2.5 ul of the solutions from column 2 and column 13 to the 10 ul of DMSO in columns 3 and 14 & so on. The compound plate was centrifuged at 2500 rpm for 1 min. From the compound plate was transferred 80 nl of the compounds into an assay plate using the Echo liquid handler system. One compound plate makes two assay plates. Each assay plate is sealed and stored in an N2 cabinet.
The following assay concentrations and times were used: 2 nM HPK1, 2 nM Eu-Anti-GST Ab, and 15 nM Tracer222, with 60 min incubation time.
III. HPK Lantha Binding Assay:
For the binding assay, 4 ul 2×HPK1 and Eu-anti-GST antibody were added to each well of the assay plate using a Multidrop reagent dispenser. The solutions were incubated in a 23 C incubator for 1 h. To each well of the assay plate was added 4 ul 2× Tracer-222 using a Multidrop reagent dispenser. The solutions were again incubated in a 23 C incubator for 1 h. The results of the assay were read using an Envision plate reader with the following parameters: TR_FRET, 340 ex/615 and 665em; 100 usec Delay; and 200 usec integration.
Compound Ki was analyzed using Morrison ki fit model in XL-fit • a. fit=(1−((((E+x)+(Ki*(1+(S/Kd))))−(((((E+x)+(Ki*(1+(S/Kd))))^2)−((4*E)*x))^0.5))/(2*E))) • res=(y−fit) • b. Parameters: • E=enzyme concentration • S=Tracer222 concentration, Kd=Tracer222 Kd • All measurements reported using the same units (uM)
Exemplary compounds were tested in the binding assays.
On to `CC[C@]1(C#N)CC[C@@]2(CNc3ncc(-c4ccc(N)c(C(=O)N(C)C)c4F)c(Cl)c32)C1` (relative stereo) [Compound 152a, 6-Amino-3-((1R,3S)-4′-chloro-3-cyano-3-ethyl-1′,2′-dihydrospiro[cyclopentane-1,3′-pyrrolo[2,3-b]pyridin]-5′-yl)-2-fluoro-N,N-dimethylbenzamide], for which the Ki was found to be 0.00435 µM.

`CC[C@]1(C(N)=O)CC[C@@]2(CNc3ncc(-c4ccc(N)c(C(=O)N(C)C)c4F)c(Cl)c32)C1` (relative stereo) [Compound 153a, (1R,3S)-5′-(4-Amino-3-(dimethylcarbamoyl)-2-fluorophenyl)-4′-chloro-3-ethyl-1′,2′-dihydrospiro[cyclopentane-1,3′-pyrrolo[2,3-b]pyridine]-3-carboxamide] came in with a Ki of 0.00716 µM.

Take `Cc1noc([C@@]2(C)CC[C@@]3(CNc4ncc(-c5ccc(N)c(C(=O)N(C)C)c5F)c(Cl)c43)C2)n1` (relative stereo) [Compound 156a, 6-Amino-3-((1R,3S)-4′-chloro-3-methyl-3-(3-methyl-1,2,4-oxadiazol-5-yl)-1′,2′-dihydrospiro[cyclopentane-1,3′-pyrrolo[2,3-b]pyridin]-5′-yl)-2-fluoro-N,N-dimethylbenzamide]: affinity was put at a Ki of 0.00263 µM.

As for `Cc1nc(N)nn1[C@H]1CC[C@@]2(CNc3ncc(-c4ccc(N)c(C(=O)N(C)C)c4F)c(Cl)c32)C1` (relative stereo) [Compound 157a, 6-Amino-3-((1R,3S)-3-(3-amino-5-methyl-1H-1,2,4-triazol-1-yl)-4′-chloro-1′,2′-dihydrospiro[cyclopentane-1,3′-pyrrolo[2,3-b]pyridin]-5′-yl)-2-fluoro-N,N-dimethylbenzamide], the affinity corresponds to a Ki of 0.109 µM.

Compound `Cc1nc(N)n([C@H]2CC[C@@]3(CNc4ncc(-c5ccc(N)c(C(=O)N(C)C)c5F)c(Cl)c43)C2)n1` (relative stereo) [Compound 158a, 6-Amino-3-((1R,3S)-3-(5-amino-3-methyl-1H-1,2,4-triazol-1-yl)-4′-chloro-1′,2′-dihydrospiro[cyclopentane-1,3′-pyrrolo[2,3-b]pyridin]-5′-yl)-2-fluoro-N,N-dimethylbenzamide] gave a Ki of 0.132 µM.

In the case of `Cc1ccn([C@H]2CC[C@@]3(CNc4ncc(-c5ccc(N)c(C(=O)N(C)C)c5F)c(Cl)c43)C2)n1` (relative stereo) [Compound 159a, 6-Amino-3-((1R,3S)-4′-chloro-3-(3-methyl-1H-pyrazol-1-yl)-1′,2′-dihydrospiro[cyclopentane-1,3′-pyrrolo[2,3-b]pyridin]-5′-yl)-2-fluoro-N,N-dimethylbenzamide], the Ki worked out at 0.0322 µM.

`Cc1cc(C#N)n([C@H]2CC[C@@]3(CNc4ncc(-c5ccc(N)c(C(=O)N(C)C)c5F)c(Cl)c43)C2)n1` (relative stereo) [Compound 161a] had a Ki of 0.051 µM.

Consider `Cc1cc(C)n([C@H]2CC[C@@]3(CNc4ncc(-c5ccc(N)c(C(=O)N(C)C)c5F)c(Cl)c43)C2)n1` (relative stereo) [Compound 163a, 6-Amino-3-((1R,3S)-4′-chloro-3-(3,5-dimethyl-1H-pyrazol-1-yl)-1′,2′-dihydrospiro[cyclopentane-1,3′-pyrrolo[2,3-b]pyridin]-5′-yl)-2-fluoro-N,N-dimethylbenzamide], for which the inhibitory constant (Ki) was 0.0693 µM.

Compound `CN(C)C(=O)c1c(N)ccc(-c2cnc3c(c2Cl)[C@]2(CC[C@H](n4cc(C(F)(F)F)cn4)C2)CN3)c1F` (relative stereo) [Compound 164a, 6-Amino-3-((1R,3S)-4′-chloro-3-(4-(trifluoromethyl)-1H-pyrazol-1-yl)-1′,2′-dihydrospiro[cyclopentane-1,3′-pyrrolo[2,3-b]pyridin]-5′-yl)-2-fluoro-N,N-dimethylbenzamide] displayed an inhibition constant (Ki) of 0.00665 µM.

In the case of `COc1c(-c2ccc(N)c(C(=O)N(C)C)c2F)cnc2c1[C@@]1(CN2)C[C@@H]1C` (relative stereo) [Compound 165a, 6-Amino-2-fluoro-3-((1R,2S)-4′-methoxy-2-methyl-1′,2′-dihydrospiro[cyclopropane-1,3′-pyrrolo[2,3-b]pyridin]-5′-yl)-N,N-dimethylbenzamide], the Ki worked out at 0.00641 µM.

As for `Cc1nccn1[C@H]1CC[C@@]2(CNc3ncc(-c4ccc(N)c(C(=O)N(C)C)c4F)c(Cl)c32)C1` (relative stereo) [Compound 167a, 6-Amino-3-((1R,3S)-4′-chloro-3-(2-methyl-1H-imidazol-1-yl)-1′,2′-dihydrospiro[cyclopentane-1,3′-pyrrolo[2,3-b]pyridin]-5′-yl)-2-fluoro-N,N-dimethylbenzamide], the Ki was 0.163 µM.

For the compound `CCc1cnn([C@H]2CC[C@@]3(CNc4ncc(-c5ccc(N)c(C(=O)N(C)C)c5F)c(Cl)c43)C2)c1` (relative stereo) [Compound 170a, 6-Amino-3-((1R,3S)-4′-chloro-3-(4-ethyl-1H-pyrazol-1-yl)-1′,2′-dihydrospiro[cyclopentane-1,3′-pyrrolo[2,3-b]pyridin]-5′-yl)-2-fluoro-N,N-dimethylbenzamide], the inhibitory constant (Ki) worked out at 0.00554 µM.

On to `CN(C)C(=O)c1c(N)ccc(-c2cnc3c(c2Cl)[C@]2(CC[C@H](n4cc(Cl)cn4)C2)CN3)c1F` (relative stereo) [Compound 171a, 6-Amino-3-((1R,3S)-4′-chloro-3-(4-chloro-1H-pyrazol-1-yl)-1′,2′-dihydrospiro[cyclopentane-1,3′-pyrrolo[2,3-b]pyridin]-5′-yl)-2-fluoro-N,N-dimethylbenzamide], for which the Ki was 0.00658 µM.

In the case of `CN(C)C(=O)c1c(N)ccc(-c2cnc3c(c2Cl)[C@]2(CC[C@H](Oc4ccccn4)C2)CN3)c1F` (relative stereo) [Compound 173a, 6-Amino-3-((1R,3S)-4′-chloro-3-(pyridin-2-yloxy)-1′,2′-dihydrospiro[cyclopentane-1,3′-pyrrolo[2,3-b]pyridin]-5′-yl)-2-fluoro-N,N-dimethylbenzamide], the Ki turned out to be 0.00675 µM.

Compound `Cc1cn([C@H]2CC[C@@]3(CNc4ncc(-c5ccc(N)c(C(=O)N(C)C)c5F)c(Cl)c43)C2)nc1N` (relative stereo) [Compound 177a, 6-Amino-3-((1R,3S)-3-(3-amino-4-methyl-1H-pyrazol-1-yl)-4′-chloro-1′,2′-dihydrospiro[cyclopentane-1,3′-pyrrolo[2,3-b]pyridin]-5′-yl)-2-fluoro-N,N-dimethylbenzamide] showed an inhibitory constant (Ki) of 0.0147 µM.

In turn, `Cc1cnn([C@H]2CC[C@@]3(CNc4ncc(-c5ccc(N)c(C(=O)N(C)C)c5F)c(Cl)c43)C2)c1N` (relative stereo) [Compound 178a, 6-Amino-3-((1R,3S)-3-(5-amino-4-methyl-1H-pyrazol-1-yl)-4′-chloro-1′,2′-dihydrospiro[cyclopentane-1,3′-pyrrolo[2,3-b]pyridin]-5′-yl)-2-fluoro-N,N-dimethylbenzamide] had a Ki of 0.0159 µM.

For the compound `CN(C)C(=O)c1c(N)ccc(-c2cnc3c(c2Cl)[C@]2(CC[C@H](n4cc(C(N)=O)cn4)C2)CN3)c1F` (relative stereo) [Compound 180a, 1-((1R,3S)-5′-(4-Amino-3-(dimethylcarbamoyl)-2-fluorophenyl)-4′-chloro-1′,2′-dihydrospiro[cyclopentane-1,3′-pyrrolo[2,3-b]pyridin]-3-yl)-1H-pyrazole-4-carboxamide], the Ki was 0.0461 µM.

As to `CN(C)C(=O)c1c(N)ccc(-c2cnc3c(c2Cl)[C@]2(CC[C@H](n4ccccc4=O)C2)CN3)c1F` (relative stereo) [Compound 196a, 6-Amino-3-((1R,3S)-4′-chloro-3-(2-oxopyridin-1(2B)-yl)-1′,2′-dihydrospiro[cyclopentane-1,3′-pyrrolo[2,3-b]pyridin]-5′-yl)-2-fluoro-N,N-dimethylbenzamide], affinity was put at a Ki of 0.0976 µM.

For `CN(C)C(=O)c1c(N)ccc(-c2cnc3c(c2Cl)[C@@]2(CN3)C[C@@H]2c2ccncc2)c1F` (relative stereo) [Compound 198a, 6-Amino-3-((1R,2R)-4′-chloro-2-(pyridin-4-yl)-1′,2′-dihydrospiro[cyclopropane-1,3′-pyrrolo[2,3-b]pyridin]-5′-yl)-2-fluoro-N,N-dimethylbenzamide], the Ki was 0.0152 µM.

With `CN(C)C(=O)c1c(N)ccc(-c2cnc3c(c2Cl)[C@@]2(CN3)C[C@@H]2c2ccccc2)c1F` (relative stereo) [Compound 201a, 6-Amino-3-((1R,2R)-4′-chloro-2-phenyl-1′,2′-dihydrospiro[cyclopropane-1,3′-pyrrolo[2,3-b]pyridin]-5′-yl)-2-fluoro-N,N-dimethylbenzamide], affinity was put at a Ki of 0.00358 µM.

`CN(C)C(=O)c1c(N)ccc(-c2cnc3c(c2Cl)[C@]2(CC[C@H](CO)C2)CN3)c1F` (relative stereo) [Compound 259a, 6-Amino-3-((1R,3S)-4′-chloro-3-(hydroxymethyl)-1′,2′-dihydrospiro[cyclopentane-1,3′-pyrrolo[2,3-b]pyridin]-5′-yl)-2-fluoro-N,N-dimethylbenzamide] registered an inhibition constant (Ki) of 0.0061 µM.
